Tested on: ZDF (Zucker Diabetic Fatty) rats
Test: Inhibitory effect on visceral fat accumulation (mesenteric fat weight) in high-fat-diet-fed ZDF rats
Type: in vivo, rat
Settings: for Effect of inhibiting visceral fat accumulation (in words): Tukey-Kramer's test vs negative sample; for Mesenteric fat weight as percentage of that of the group administered with the negative sample: oral once a day for 44 days, 45th day; for Mesenteric fat weight: male ZDF rats on high fat diet, oral 1 ml per 400 g body weight once a day for 44 days, measured at 45th day
Method: In Example 1, an inhibitory effect of a compound having a lophenol skeleton on visceral fat accumulation was investigated by using ZDF (Zucker Diabetic Fatty) rats that are model animals for obese diabetes.
Compound 3 (4-methylcholest-7-en-3-ol), Compound 4 (4-methylergost-7-en-3-ol), and Compound 5 (4-methylstigmast-7-en-3-ol) which were produced in Preparation Example 1 were used as Test Samples 1, 2, and 3, respectively. Each of the test samples was dissolved in DMSO, and a concentration of each of the compounds in each of the test samples was adjusted with distilled water to be 10 μg/ml, thereby preparing Test Samples 1-1, 2-1, and 3-1. Test Samples 1-2, 2-2, and 3-2 each having the concentration of a compound of 1 μg/ml were prepared.
At 45th day from initiation of the administration, mesenteric fat weights were measured as the visceral fat.

Structure (SMILES)	Effect of inhibiting visceral fat accumulation (in words) (1 μg/ml)	Mesenteric fat weight as percentage of that of the group administered with the negative sample (10 μg/ml solution) [%]	Effect of inhibiting visceral fat accumulation (in words) (10 μg/ml)	Mesenteric fat weight (1 μg/ml solution) [g]	Mesenteric fat weight (10 μg/ml solution, listed as Test Sample 2-1) [g]	Mesenteric fat weight (10 μg/ml solution, listed as Test Sample 3-1) [g]	Mesenteric fat weight (10 μg/ml solution, listed as Test Sample 1-1) [g]
CC(C)C(C)CCC(C)C1CCC2C3=CCC4C(C)C(O)CCC4(C)C3CCC21C (stereo not drawn) [Compound 4, 4-methylergost-7-en-3-ol]	tendency to reduce the visceral fat, but no significant effect was observed	54.9	significant effects of inhibiting visceral fat accumulation	5.74 ± 1.57	3.78 ± 0.26		
CCC(CCC(C)C1CCC2C3=CCC4C(C)C(O)CCC4(C)C3CCC21C)C(C)C (stereo not drawn) [Compound 5, 4-methylstigmast-7-en-3-ol]	tendency to reduce the visceral fat, but no significant effect was observed	48.7	significant effects of inhibiting visceral fat accumulation	6.10 ± 1.67		3.36 ± 1.67	
CC(C)CCCC(C)C1CCC2C3=CCC4C(C)C(O)CCC4(C)C3CCC21C (stereo not drawn) [Compound 3, 4-methylcholest-7-en-3-ol]	tendency to reduce the visceral fat, but no significant effect was observed	65.0	significant effects of inhibiting visceral fat accumulation	5.63 ± 1.25			4.48 ± 1.34

Source: patent US8518924B2, “Agent for inhibiting visceral fat accumulation” (Morinaga Milk Industry Co., Ltd., priority 2005, dated 2013)
